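Each compound was tested at five concentrations against cells in 96-well plates for 48 hours. GI50 is the concentration that inhibits growth by half.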 Activity calls are given as the source filed them. Rule as the data show it: active = GI50 up to about 1.1 µM and inactive = higher.
Experiments:
Assay in all cases: DTP human tumour cell line panel, 48 h
[1] = tested on: HCT-116
[2] = tested on: EKVX
[3] = tested on: OVCAR-5
[4] = tested on: HCT-15
[5] = tested on: PC-3
[6] = tested on: HT-29
[7] = tested on: SN12C
[8] = tested on: Hs-578T
[9] = tested on: DU-145
[10] = tested on: 786-0
[11] = tested on: SK-MEL-5
[12] = tested on: SK-MEL-28
[13] = tested on: ACHN
[14] = tested on: SNB-75
[15] = tested on: RPMI-8226
[16] = tested on: COLO 205
[17] = tested on: MDA-N
[18] = tested on: SW-620
[19] = tested on: SR

Compound: CC/C=N\N1C(N)=C(C#N)C(C#N)(C#N)C1CC (stereo unspecified)
- GI50 [1]: 10.8 µM (inactive)
- GI50 [2]: > 100 µM (inactive)
- GI50 [3]: > 100 µM (inactive)
- GI50 [4]: 54.2 µM
- GI50 [5]: > 100 µM (inactive)
- GI50 [6]: 28.8 µM (inactive)
- GI50 [7]: > 100 µM (inactive)
- GI50 [8]: > 100 µM (inactive)
- GI50 [9]: > 100 µM (inactive)
- GI50 [10]: > 100 µM (inactive)
- GI50 [11]: 53.1 µM (inactive)
- GI50 [12]: 56.2 µM (inactive)
- GI50 [13]: > 100 µM (inactive)
- GI50 [14]: 81.8 µM (inactive)
- GI50 [15]: 83 µM (inactive)
- GI50 [16]: > 100 µM (inactive)
- GI50 [17]: 53.5 µM (inactive)
- GI50 [18]: 61.7 µM (inactive)

Compound: COc1ccc(NC(=S)c2ccc(CN3CCCCC3)s2)cc1
- GI50 [1]: 16.9 µM (inactive)
- GI50 [2]: 18.8 µM (inactive)
- GI50 [3]: 16.4 µM (inactive)
- GI50 [4]: 12.8 µM
- GI50 [5]: 25.6 µM (inactive)
- GI50 [6]: 5.46 µM (inactive)
- GI50 [7]: 47 µM (inactive)
- GI50 [8]: 12.6 µM (inactive)
- GI50 [9]: 38.2 µM (inactive)
- GI50 [10]: 17.8 µM (inactive)
- GI50 [11]: 14.3 µM (inactive)
- GI50 [12]: 17.3 µM (inactive)
- GI50 [13]: 31 µM (inactive)
- GI50 [15]: 23.4 µM (inactive)
- GI50 [16]: 16.2 µM (inactive)
- GI50 [17]: 18.5 µM (inactive)
- GI50 [18]: 19.4 µM (inactive)
- GI50 [19]: 16.8 µM (inactive)

Compound: CCCCCCCCC/C=C1/CC(CO)(COC(=O)C2CCCCC2)OC1=O (stereo unspecified)
- GI50 [1]: > 100 µM (inactive)
- GI50 [2]: > 100 µM (inactive)
- GI50 [3]: > 100 µM (inactive)
- GI50 [4]: > 100 µM
- GI50 [5]: > 100 µM (inactive)
- GI50 [6]: > 100 µM (inactive)
- GI50 [7]: > 100 µM (inactive)
- GI50 [8]: 62.8 µM (inactive)
- GI50 [9]: > 100 µM (inactive)
- GI50 [10]: > 100 µM (inactive)
- GI50 [11]: 43.2 µM (inactive)
- GI50 [12]: > 100 µM (inactive)
- GI50 [13]: > 100 µM (inactive)
- GI50 [14]: > 100 µM (inactive)
- GI50 [16]: 34 µM (inactive)
- GI50 [17]: 86.7 µM (inactive)
- GI50 [18]: > 100 µM (inactive)
- GI50 [19]: > 100 µM (inactive)

Compound: CC1(C)CC(O)C(C)(C)[C@@H](O)C1 (stereo partly specified)
- GI50 [1]: > 100 µM (inactive)
- GI50 [2]: > 100 µM (inactive)
- GI50 [3]: > 100 µM (inactive)
- GI50 [4]: > 100 µM
- GI50 [5]: > 100 µM (inactive)
- GI50 [6]: > 100 µM (inactive)
- GI50 [7]: > 100 µM (inactive)
- GI50 [8]: > 100 µM (inactive)
- GI50 [9]: > 100 µM (inactive)
- GI50 [10]: > 100 µM (inactive)
- GI50 [11]: > 100 µM (inactive)
- GI50 [12]: > 100 µM (inactive)
- GI50 [13]: > 100 µM (inactive)
- GI50 [14]: > 100 µM (inactive)
- GI50 [16]: > 100 µM (inactive)
- GI50 [17]: > 100 µM (inactive)
- GI50 [18]: > 100 µM (inactive)

Reference: ChEMBL document CHEMBL1201862, “PubChem BioAssay data set” (2004)
